Experimental data published in patent publication US20250339396A1 (COSMAS THERAPEUTICS DEVELOPMENT INC., priority 2021, published 2025).

Columns and labels:
neuropathic (SNI) rats = experiment: Mechanical allodynia (von Frey, 50% paw withdrawal threshold) after spared nerve injury (SNI); type: in vivo, rat; details: 50 mg/kg per os
Experimental: Experiments were performed in male Sprague-Dawley rats (body weight: 250-300 g; Charles River Laboratories, St. Constant, QC, Canada) and adult male C57BL mice (body weight: 25-30 g; inbred). All animals were housed in small groups at a constant temperature of 22° C., with food and water provided ad libitum, and maintained under a 12 h light/dark cycle (lights on at 7:00 AM; lights off at 7:00 PM). All experimental procedures were conducted in accordance with the guidelines of the Canadian Council on Animal Care, and the protocols were approved by the Animal Care Committee at McGill University.
The different prodrug compounds as synthesized in Example 2 were tested and compared with Gabapentin (150 mg/kg, purchased from Sigma Aldrich, US). Prodrug was dissolved in saline, water, or a vehicle composed of 40% PEG400 and 60% water. Gabapentin was dissolved in a vehicle composed of 40% PEG400 and 60% water. All drugs (doses see the procedure descriptions below) were administrated per os (gavage) through a curved feeding tube (20 G for rats and 22 G for mice) at the beginning of the experiment unless otherwise specified. The dose of prodrug was chosen based on its pharmacokinetic properties, and the doses of Gabapentin were chosen from literature (Lopez-Canul, Palazzo et al. 2015).
Spared nerve injury was performed according to the method of (Decosterd I and Woolf CJ, 2000), see also Lopez-Canul et al., 2015. Rats and mice were anesthetized with isoflurane. The sciatic nerve was exposed at mid-thigh level distal to the trifurcation and freed of connective tissue; the three peripheral branches (sural, common peroneal, and tibial nerves) of the sciatic nerve were exposed without stretching nerve structures. Both tibial and common peroneal nerves were ligated and transected together. Tactile allodynia was absent in healthy (pre-surgery) and sham rats, and the mechanical withdrawal threshold in rats before SNI (pre-surgery) or sham was very close to the cutoff of dynamic plantar aesthesiometer (30 g) (Ugo Basile, Varese, Italy).
On day 14 after surgery, individual rats were placed in a test chamber (clear plastic wire mesh-bottomed cage) and allowed to acclimatize for 30 to 40 minutes. Von Frey filaments (Stoelting, Wood Dale, IL) were used to measure the 50% paw withdrawal threshold using the up-and-down method reported by {Chaplan, 1994 #399}. […] Lifting of the paw indicated a positive response and prompted the use of the […], whereas absence of paw withdrawal after 5 seconds indicated a negative response and prompted the next filament of increasing weight. This paradigm continued for 4 more measurements after the initial change of the behavioral response or until 5 consecutive negative or 4 consecutive positive responses. Based on observations on normal, unoperated, and sham-operated rats, the cutoff value of 15 g was selected as the upper limit for testing because stiffer hairs tended to raise the entire limb rather than to buckle, substantially changing the nature of the stimulus. The resulting scores were used to calculate the 50% response threshold using the formula proposed by Dixon. Allodynia was considered to be present when paw withdrawal thresholds were <4 g, and drugs raising this threshold were considered antiallodynic {Lopez-Canul, 2015}. Accordingly, all nerve ligated rats were verified to be allodynic, responding to a stimulus of <4 g. Rats without mechanical allodynia were excluded. After the determination of the basal response, allodynia was assessed at baseline, 0.5, 1, 1.5, 2, 2.5, 3, 4, 5, 6, 7, and 8 hours post-administration for each treatment described below. Groups of 5 to 6 rats per treatment were used, with each animal being used for 1 treatment only. […]

[1] = Stability of Prodrug D in solvents by HPLC; type: physicochemical
Experimental: For this test, we used HPLC with different solvent systems. […] Therefore, after initial assessment, this method was used for the remaining tests. Prodrug D or UCM924 (comparator) were dissolved in the different solvents listed in the table below and, after the waiting period indicated, HPLC tests were carried out according to the above. The results are shown in the table below, in which the percentages represent the quantity of prodrug D or UCM924 detected in the samples.

mice (C57/BL) = experiment: Elevated Plus Maze Test (EPMT); type: in vivo, mouse; design: key to closed arm time, difference between medians: Actual / closed arm time, difference between medians: Hodges-Lehmann: time in closed arms, in seconds (s); total distance, difference between medians: Actual / total distance, difference between medians: Hodges-Lehmann: unit not given here; details: 150 mg/kg oral gavage
Experimental: Prodrug D 150 mg/kg was dissolved in tap water per oral gavage. The solution was prepared <30 seconds before administration (100 μL administration volume).
Behavioral tests performed 2.5-3 hours after drug administration. 8 mice (C57/BL) per group were used received vehicle or Prodrug D.
The EPMT was used to assess anxiety-like reactivity as induced suppression of exploratory behavior. The maze was made of white Plexiglass and consisted of two open arms (16×5 cm) opposite each other and two walled arms (16×5×12 cm) opposite each other. […] The mice were each placed on the central platform facing one of the open arms. EPMT behavior was recorded for 5 min under bright white light (100 W). Behavioral endpoints that were analyzed included time spent in the open vs closed arms, frequency of open arm vs closed arm entries, time spent (s) on the central platform. Anxiolytic agents are known to increase open arm visits and time in the open arm. Anxiogenics increase closed arm visits.
The percentage of the time spent in the open arms was calculated employing the formula […] where OA represents the time (s) spent in open arms and CA is the time (s) spent in the closed arms. Behavioral experiments were recorded and analyzed using an automated tracking system (Video track, View Point Life Science, Montreal, Canada) equipped with infrared lighting-sensitive CCD cameras (Bambico F R et al., 2010).

[2] = 2.5-3 hours after administration, 5 min EPMT

CC(=O)N(CCN(c1ccc(F)cc1)c1cccc(Br)c1)C(=O)OCOC(=O)CN.Cl [Prodrug D, ((acetyl(2-((3-bromophenyl)(4-fluorophenyl)amino)ethyl)carbamoyl)oxy)methyl 2-aminoacetate hydrochloride]
AUC of withdrawal threshold vs. UCM924, t-test p (neuropathic (SNI) rats): 0.015
Area Under the Curve (AUC) of withdrawal threshold vs. vehicle, Bonferroni p (FIG. 1B) (neuropathic (SNI) rats): < 0.0001
withdrawal threshold over time vs. vehicle (two-way ANOVA, FIG. 1A) (neuropathic (SNI) rats; 0.5-8 h): significantly increased the withdrawal threshold
withdrawal threshold vs. vehicle, Bonferroni post-hoc p (neuropathic (SNI) rats; after 3, 4, 5 and 6 hours): < 0.0001
withdrawal threshold vs. vehicle, Bonferroni post-hoc p (neuropathic (SNI) rats; after 1 hour): 0.05
withdrawal threshold vs. precursor UCM924, Bonferroni post-hoc p (neuropathic (SNI) rats; hour 5): < 0.001
withdrawal threshold vs. precursor UCM924, Bonferroni post-hoc p (neuropathic (SNI) rats; hour 6): < 0.0001
quantity detected in the sample by HPLC ([1]; HPLC Method 1, H2O, 0 h, pH ~7.0): 90.15%
quantity detected in the sample by HPLC ([1]; HPLC Method 2, 1N HCl, overnight at rt, pH ~0): 85.21%
quantity detected in the sample by HPLC ([1]; HPLC Method 2, 40% PEG400:60% H2O, overnight at rt, pH ~7.0): 58.17%
quantity detected in the sample by HPLC ([1]; HPLC Method 2, H2O, 0 h, pH ~7.0): 93.92%
quantity detected in the sample by HPLC ([1]; HPLC Method 2, H2O, overnight at rt, pH ~7.0): 18.28%
quantity detected in the sample by HPLC ([1]; HPLC Method 2, Saturated NaHCO3aq, 2 h at rt, pH ~8.5): 27.21%
stability at different PH ([1]; rank order): acidic>neutral>basic
overall effect in the EPMT (mice (C57/BL)): antianxiety effects
closed arm time, median (mice (C57/BL); [2]): 222.8, n = 8
entries to open, median (mice (C57/BL); [2]): 11.00, n = 8
open arm time, median (mice (C57/BL); [2]): 56.30, n = 8
total distance, median (mice (C57/BL); [2]): 1521, n = 8
closed arm time, difference between medians: Actual (mice (C57/BL); VEH minus Prodrug D (column A)): 25.75
entries to open, difference between medians: Actual (mice (C57/BL); VEH minus Prodrug D (column A)): −2
open arm time, difference between medians: Actual (mice (C57/BL); VEH minus Prodrug D (column A)): −30.85
total distance, difference between medians: Actual (mice (C57/BL); VEH minus Prodrug D (column A)): −2.35
closed arm time, difference between medians: Hodges-Lehmann (mice (C57/BL); VEH vs. Prodrug D): 29.45
entries to open, difference between medians: Hodges-Lehmann (mice (C57/BL); VEH vs. Prodrug D): −2.5
open arm time, difference between medians: Hodges-Lehmann (mice (C57/BL); VEH vs. Prodrug D): −25.9
total distance, difference between medians: Hodges-Lehmann (mice (C57/BL); VEH vs. Prodrug D): −116.6
